For one assay, the target named is TEAD4 (Homo sapiens, UniProt Q15561). The assay is described as follows: TR-FRET (Lipid HTRF) TEAD lipid pocket probe displacement assay, TEAD4. It is filed as binding. As to conditions: His-tagged TEAD4, biotinylated lipid pocket probe, 4 hours. For orientation: In TR-FRET formats the signal depends on donor and acceptor labels being close together.
Another assay deals with TEAD3 (Homo sapiens, UniProt Q99594). The assay is described as follows: TR-FRET (Lipid HTRF) TEAD lipid pocket probe displacement assay, TEAD3. In kind it is binding. As to conditions: His-tagged TEAD3, biotinylated lipid pocket probe, 4 hours.
TEAD3, sequence (Q99594 whole entry, species assumed): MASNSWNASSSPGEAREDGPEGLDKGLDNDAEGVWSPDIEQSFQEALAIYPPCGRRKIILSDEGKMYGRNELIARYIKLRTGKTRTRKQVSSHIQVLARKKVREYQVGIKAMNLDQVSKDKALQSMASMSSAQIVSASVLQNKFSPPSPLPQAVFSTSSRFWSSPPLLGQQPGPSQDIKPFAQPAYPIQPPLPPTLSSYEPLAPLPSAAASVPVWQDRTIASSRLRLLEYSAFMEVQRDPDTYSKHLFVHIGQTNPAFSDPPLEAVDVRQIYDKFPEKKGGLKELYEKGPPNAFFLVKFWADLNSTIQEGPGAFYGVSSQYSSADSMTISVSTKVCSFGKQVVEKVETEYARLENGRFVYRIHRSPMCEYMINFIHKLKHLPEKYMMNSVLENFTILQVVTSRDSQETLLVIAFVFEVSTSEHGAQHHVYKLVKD
The next assay concerns the target TEAD2 (Homo sapiens, UniProt Q15562). The assay can be described thus: biochemical.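 Note: TR-FRET competition assay with His-tagged TEAD protein and a biotinylated lipid pocket probe, where probe displacement by compound lowers the signal.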
A further assay addresses TEAD1 (Homo sapiens, UniProt P28347). The assay can be described thus: TR-FRET (Lipid HTRF) TEAD lipid pocket probe displacement assay, TEAD1. The conditions noted are these: His-tagged TEAD1, biotinylated lipid pocket probe, 4 hours. In kind it is binding.

Molecules are shown by their SMILES.

A word on the IC50: it is the concentration at which inhibition is half-maximal.

TEAD4, sequence (Q15561 whole entry, species assumed): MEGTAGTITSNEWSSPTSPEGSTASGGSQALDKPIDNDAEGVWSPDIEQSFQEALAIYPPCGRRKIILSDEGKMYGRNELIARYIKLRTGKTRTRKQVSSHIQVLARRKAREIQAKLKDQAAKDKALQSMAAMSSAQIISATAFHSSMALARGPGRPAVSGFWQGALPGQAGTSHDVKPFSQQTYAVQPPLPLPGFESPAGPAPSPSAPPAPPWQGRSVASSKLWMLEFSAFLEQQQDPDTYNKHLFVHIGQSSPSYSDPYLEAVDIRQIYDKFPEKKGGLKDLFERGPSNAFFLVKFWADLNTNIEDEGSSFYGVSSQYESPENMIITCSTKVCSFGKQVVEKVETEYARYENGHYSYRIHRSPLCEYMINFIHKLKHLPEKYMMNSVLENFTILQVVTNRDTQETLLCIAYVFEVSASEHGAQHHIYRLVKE
TEAD2, sequence (Q15562 whole entry, species assumed): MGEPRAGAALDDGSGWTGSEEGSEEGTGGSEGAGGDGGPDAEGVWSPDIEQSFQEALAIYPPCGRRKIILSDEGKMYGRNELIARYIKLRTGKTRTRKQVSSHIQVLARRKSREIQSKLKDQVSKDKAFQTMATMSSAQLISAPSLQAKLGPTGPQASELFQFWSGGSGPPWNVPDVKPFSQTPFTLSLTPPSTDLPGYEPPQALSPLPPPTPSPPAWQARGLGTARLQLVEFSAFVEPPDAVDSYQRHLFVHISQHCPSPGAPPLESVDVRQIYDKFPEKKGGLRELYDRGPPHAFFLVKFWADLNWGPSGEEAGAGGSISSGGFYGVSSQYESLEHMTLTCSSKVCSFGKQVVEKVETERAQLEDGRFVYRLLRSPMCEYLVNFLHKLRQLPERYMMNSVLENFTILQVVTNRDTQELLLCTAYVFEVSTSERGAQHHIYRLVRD
TEAD1, sequence (P28347 whole entry, species assumed): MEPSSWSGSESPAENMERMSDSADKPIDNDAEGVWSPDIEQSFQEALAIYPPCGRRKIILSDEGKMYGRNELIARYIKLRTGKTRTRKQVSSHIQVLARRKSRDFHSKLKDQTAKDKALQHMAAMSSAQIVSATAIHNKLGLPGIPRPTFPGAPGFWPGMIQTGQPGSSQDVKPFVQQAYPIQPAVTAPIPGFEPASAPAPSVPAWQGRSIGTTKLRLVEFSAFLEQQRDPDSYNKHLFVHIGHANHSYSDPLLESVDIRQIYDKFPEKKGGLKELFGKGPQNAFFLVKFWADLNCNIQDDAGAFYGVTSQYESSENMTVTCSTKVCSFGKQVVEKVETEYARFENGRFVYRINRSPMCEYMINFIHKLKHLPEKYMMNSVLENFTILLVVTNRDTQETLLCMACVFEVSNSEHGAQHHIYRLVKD
Method for TEAD1: (§1) His-tagged TEAD proteins are pre-incubated with TEAD project compounds for 30 minutes or 4 hours at room temperature. Biotinylated lipid pocket probes are then added to the TEAD/Compound mixture and incubated for 60 minutes at room temperature. The lipid pocket probe competes with the test compound for the TEAD lipid pocket until equilibrium is reached. After 60 minutes, Europium labelled anti-His (Perkin Elmer #AD0110) and XL665 labelled streptavidin (CIS Bio 610SAXAC) are added to the TEAD/test compound/lipid pocket mixture and incubated for 30 minutes or 4 hours. TR-FRET values are then measured using an EnVision multi-label plate reader (Perkin Elmer Cat #2104-001 0A.) If the lipid pocket probe binds to TEAD as expected, a TR-FRET signal results from the proximity of anti-His Eu and XL665. If a TEAD lipid pocket binder such as binds and displaces the lipid pocket probe, the disruption of the TEAD:probe interaction results in a decrease in TR-FRET signal. The potency of compounds as TEAD lipid pocket binders is determined by IC50 value generated using a non-linear 4 parameter curve fit.
Method for TEAD3: as §1

As for `Cn1cnc2c(-c3ccc(OC(F)(F)F)cc3)nc(C3(C#N)CN(C(=O)/C=C/CO)C3)nc21` [Compound 128, (E)-1-(4-Hydroxybut-2-enoyl)-3-(9-methyl-6-(4-(trifluoromethoxy)phenyl)-9H-purin-2-yl)azetidine-3-carbonitrile], the 50% inhibitory concentration (IC50) was 2.7 nM at TEAD4, 9.9 nM at TEAD3, 21 nM on TEAD2 and 11 nM on TEAD1.

As to `C=CC(=O)N(CC)Cc1nc(-c2ccc(OC(F)(F)F)cc2)c2ncsc2n1` [Compound 98, N-Ethyl-N-((7-(4-(trifluoromethoxy)phenyl)thiazolo[5,4-d]pyrimidin-5-yl)methyl)acrylamide], the IC50 is 48 nM on TEAD4, 680 nM on TEAD3, 140 nM against TEAD2 and 710 nM at TEAD1.

Regarding `C=CC(=O)N(C)Cc1cc(-c2ccc(OC(F)(F)F)cc2)c2c(c1CO)CCO2` [Compound 88, N-((4-(Hydroxymethyl)-7-(4-(trifluoromethoxy)phenyl)-2,3-dihydrobenzofuran-5-yl)methyl)-N-methylacrylamide], the IC50 at TEAD4 came to 3.1 nM; at TEAD3, 7.4 nM; against TEAD2, 6.7 nM; at TEAD1, 4.4 nM.

Consider `C=CC(=O)NCc1nc(N2CCC(C(F)(F)F)CC2)c2ncn(C)c2n1` [Compound 130, N-((9-Methyl-6-(4-(trifluoromethyl)piperidin-1-yl)-9H-purin-2-yl)methyl)acrylamide], for which the IC50 on TEAD4 came to 140 nM; at TEAD3, 440 nM; against TEAD2, 1000 nM; on TEAD1 it was 410 nM.

For `C=CC(=O)NCc1cc(-c2ccc(OC(F)(F)F)cc2)c2cccnc2c1[C@H](O)CO` (single isomer, unassigned) [Compound 45], the IC50 on TEAD4 is 380 nM; on TEAD3 it was 1200 nM; against TEAD2, 18 nM; at TEAD1 it was 48 nM.

For the compound `C=CC(=O)NCc1cc(-c2ccc(OC(F)(F)F)cc2)c2c(c1[C@H](O)[C@H](C)O)CCO2` (single isomer, unassigned) [Compound 89], the IC50 at TEAD4 amounted to 150 nM; on TEAD3 it was 4800 nM; on TEAD2 it was 34 nM; on TEAD1 it was 160 nM.

For `C=CC(=O)NCc1cc(-c2ccc(C(F)(F)F)cc2)c2ncoc2c1[C@@H](O)CO` (single isomer, unassigned) [Compound 110], the IC50 came to 260 nM on TEAD4, 970 nM at TEAD3, 47 nM against TEAD2 and 140 nM at TEAD1.

Turning to `C=CC(=O)NCc1cc(-c2ccc(OC(F)(F)F)cc2)c2ncn(C)c2c1C(F)F` [Compound 77, N-[[4-(difluoromethyl)-3-methyl-7-[4-(trifluoromethoxy)phenyl]benzimidazol-5-yl]methyl]prop-2-enamide], the IC50 on TEAD4 came to 2.5 nM; on TEAD3, 110 nM; at TEAD2, 4 nM; at TEAD1, 11 nM.

For the compound `C=CC(=O)N1CC(c2nc(-c3ccc(OC(F)(F)F)cc3)c3ncsc3n2)C1` [Compound 99, 1-(3-(7-(4-(Trifluoromethoxy)phenyl)thiazolo[5,4-d]pyrimidin-5-yl)azetidin-1-yl)prop-2-en-1-one], the IC50 on TEAD4 stood at 2.7 nM; on TEAD3, 3.1 nM; against TEAD2 it was 4.3 nM; at TEAD1 it was 3.7 nM.

Turning to `C=CC(=O)NCc1cc(-c2ccc(OC(F)(F)F)cc2)c2ncccc2c1[C@H](O)CO` (single isomer, unassigned) [Compound 47], the IC50 on TEAD4 stood at 135 nM; at TEAD3 it was 175 nM; on TEAD2, 11.5 nM; on TEAD1, 22 nM.

For the compound `C=CC(=O)N(C)Cc1cc(-c2ccc(OC(F)(F)F)cc2)c2c(c1[C@H](O)CO)CCO2` (single isomer, unassigned) [Compound 55], the IC50 worked out at 7.2 nM on TEAD4, 240 nM at TEAD3, 4.4 nM at TEAD2 and 20 nM at TEAD1.

In the case of `C=C(F)C(=O)N1CC(c2cc(-c3ccc(OC(F)(F)F)cc3)c3ncn(C)c3c2CO)C1` [Compound 59, 2-fluoro-1-[3-[4-(hydroxymethyl)-3-methyl-7-[4-(trifluoromethoxy)phenyl]benzimidazol-5-yl]azetidin-1-yl]prop-2-en-1-one], the IC50 came out at 81 nM on TEAD4, 380 nM on TEAD3, 37 nM against TEAD2 and 18 nM at TEAD1.

Consider `C=CC(=O)NCc1cc(-c2ccc(OC(F)(F)F)cc2)c2ncn(C)c2c1[C@H](C)O` (single isomer, unassigned) [Compound 139], for which the half-inhibitory concentration (IC50) at TEAD4 is 100 nM; at TEAD3, 380 nM; at TEAD2, 6.8 nM; at TEAD1, 160 nM.

On to `C=CC(=O)N(C)Cc1cc(-c2ccc(OC(F)(F)F)cc2)c2ncccc2c1[C@@H](O)CO` (single isomer, unassigned) [Compound 52], for which the IC50 on TEAD4 was 43 nM; on TEAD3, 79 nM; on TEAD2, 46 nM; on TEAD1 it was 25 nM.

Take `C=CC(=O)NCc1cc(-c2ccc(OC(F)(F)F)cc2)c2nccnc2c1C#N` [Compound 85, N-((5-Cyano-8-(4-(trifluoromethoxy)phenyl)quinoxalin-6-yl)methyl)acrylamide]: the half-maximal inhibitory concentration (IC50) is 88.7 nM at TEAD4, 127 nM on TEAD3, 121 nM at TEAD2 and 78 nM on TEAD1.

On to `C=CC(=O)NCc1nc(-c2ccc(OC(F)(F)F)cc2)c2occc2n1` [Compound 10, N-[[4-[4-(trifluoromethoxy)phenyl]furo[3,2-d]pyrimidin-2-yl]methyl]prop-2-enamide], for which the IC50 at TEAD4 is 94 nM; on TEAD3 it was 410 nM; at TEAD2, 1300 nM; on TEAD1, 140 nM.

On to `C=CC(=O)NCc1cc(-c2ccc(OC(F)(F)F)cc2)c2nccnc2c1CO` [Compound 84, N-((5-(Hydroxymethyl)-8-(4-(trifluoromethoxy)phenyl)quinoxalin-6-yl)methyl)acrylamide], for which the half-inhibitory concentration (IC50) at TEAD4 came to 48 nM; at TEAD3, 38.7 nM; against TEAD2 it was 21 nM; on TEAD1, 26.7 nM.

With `C=CC(=O)NCc1nc(-c2ccc(OC(F)(F)F)cc2)c2nc(C)sc2n1` [Compound 35, N-[[2-methyl-7-[4-(trifluoromethoxy)phenyl]thiazolo[5,4-d]pyrimidin-5-yl]methyl]prop-2-enamide], the IC50 worked out at 330 nM at TEAD4, 790 nM at TEAD3, 730 nM against TEAD2 and 11 nM at TEAD1.

For `C=CC(=O)NCc1cc(-c2ccc(OC(F)(F)F)cc2)c2ncn(C)c2c1NCCO` [Compound 140, N-((7-((2-Hydroxyethyl)amino)-1-methyl-4-(4-(trifluoromethoxy)phenyl)-1H-benzo[d]imidazol-6-yl)methyl)acrylamide], the IC50 came to 43 nM at TEAD4, 3000 nM on TEAD3, 47 nM at TEAD2 and 27 nM on TEAD1.

As for `C#Cc1ccc(-c2cc(CN(C)C(=O)C=C)c(CO)c3c2OCC3)cc1` [Compound 94, N-((7-(4-Ethynylphenyl)-4-(hydroxymethyl)-2,3-dihydrobenzofuran-5-yl)methyl)-N-methylacrylamide], the half-maximal inhibitory concentration (IC50) on TEAD4 was found to be 13 nM; on TEAD3, 56 nM; on TEAD2, 67 nM; on TEAD1, 44 nM.

Take `C=C1CCN(Cc2nc(-c3ccc(OC(F)(F)F)cc3)c3ncn(C)c3n2)C1=O` [Compound 129, 1-((9-Methyl-6-(4-(trifluoromethoxy)phenyl)-9H-purin-2-yl)methyl)-3-methylenepyrrolidin-2-one]: the IC50 was found to be 24.5 nM at TEAD4, 1350 nM at TEAD3, 1100 nM at TEAD2 and 600 nM at TEAD1.

For `C=C(F)C(=O)NCc1cc(-c2ccc(OC(F)(F)F)cc2)c2ncn(C)c2c1CO` [Compound 63, 2-fluoro-N-[[4-(hydroxymethyl)-3-methyl-7-[4-(trifluoromethoxy)phenyl]benzimidazol-5-yl]methyl]prop-2-enamide], the 50% inhibitory concentration (IC50) is 80 nM at TEAD4, 310 nM on TEAD3, 76 nM against TEAD2 and 110 nM at TEAD1.

`C=CC(=O)NCc1cc(-c2ccc(OC(F)(F)F)cc2)c2c(c1[C@H](O)CC#N)CCO2` (single isomer, unassigned) [Compound 91]: the IC50 on TEAD4 is 63 nM; on TEAD3, 11000 nM; on TEAD2, 34 nM; on TEAD1 it was 140 nM.

As to `C=CC(=O)NCc1cc(-c2ccc(OC(F)(F)F)cc2)c2ncoc2c1[C@H](O)CO` (single isomer, unassigned) [Compound 105], the IC50 at TEAD4 came out at 90 nM; at TEAD3 it was 74 nM; on TEAD2, 30 nM; on TEAD1, 130 nM.

For the compound `C#Cc1ccc(-c2cc(CNC(=O)C=C)c(CO)c3c2OCC3)cc1` [Compound 93, N-((7-(4-Ethynylphenyl)-4-(hydroxymethyl)-2,3-dihydrobenzofuran-5-yl)methyl)acrylamide], the IC50 worked out at 490 nM on TEAD4, 1100 nM at TEAD3, 540 nM at TEAD2 and 880 nM at TEAD1.

As for `C=C(F)C(=O)N1CC(c2nc(-c3ccc(OC(F)(F)F)cc3)c3ncn(C(F)F)c3n2)C1` [Compound 132, 1-(3-(9-(Difluoromethyl)-6-(4-(trifluoromethoxy)phenyl)-9H-purin-2-yl)azetidin-1-yl)-2-fluoroprop-2-en-1-one], the IC50 at TEAD4 amounted to 24 nM; on TEAD3, 100 nM; at TEAD2 it was 150 nM; at TEAD1, 6.9 nM.

Regarding `C=CC(=O)NCc1cc(-c2ccc(OC(F)(F)F)cc2)c2cccnc2c1C` [Compound 43, N-[[8-methyl-5-[4-(trifluoromethoxy)phenyl]-7-quinolyl]methyl]prop-2-enamide], the IC50 at TEAD4 is 16 nM; on TEAD3, 22 nM; on TEAD2, 9.8 nM; on TEAD1, 10 nM.
